Reference: publication PMC6480704, “Antiproliferative Aspidosperma-Type Monoterpenoid Indole Alkaloids from Bousigonia mekongensis Inhibit Tubulin Polymerization” (Molecules, 2019)
“Also recorded” adds a separate entry of the source. Where two headings read alike, the source gives them in different places.

How the values were obtained:
[1] = system: KB (originally isolated from epidermoid carcinoma of the nasopharynx); assay: Antiproliferative SRB assay, KB; assay type: cell-based; conditions: Homo sapiens, 72 h, read-out: IC50 KB
Experimental: (§1) We tested the fourteen known aspidosperma-type alkaloids (1–14) against chemosensitive KB (originally isolated from epidermoid carcinoma of the nasopharynx) and P-gp over-expressing multidrug-resistant (MDR) KB subline KB-VIN, as well as three additional human cancer cell lines, A549 (lung carcinoma), MDA-MB-231 (triple negative breast cancer), and MCF-7 (estrogen receptor-positive breast cancer), using a sulforhodamine B (SRB) assay (Table 1).
(§2) Antiproliferative activity was determined by the sulforhodamine B (SRB) colorimetric assay as previously described. In brief, human tumor cell lines were cultured in RPMI-1640 medium containing 2 mM l-glutamine and 25 mM HEPES (Gibco), supplemented with 10% fetal bovine serum (Speciality Media), 100 µg/mL streptomycin, 100 IU/mL penicillin, and 0.25 µg/mL amphotericin B (Corning). MDR stock cells (KB-VIN) were maintained in the presence of 100 nM vincristine (VIN) (Sigma-Aldrich, Saint Louis, MI, USA).
(§3) Freshly trypsinized cell suspensions were seeded in 96-well microtiter plates at densities of 4000–11,000 cells per well (based on the cell lines) with compounds. After 72 h in culture with test compounds, cells were fixed in 10% trichloroacetic acid followed by staining with 0.04% sulforhodamine B (Sigma-Aldrich). The bound SRB was solubilized in 10 mM Tris-base and the absorbance at 515 nm was measured using a Microplate Reader (ELx800, Bio-Tek Instruments, Winooski, VT, USA) operated by Gen5 software (BioTek) after solubilizing the protein-bound dye with 10 mM Tris base. The mean IC50 is the concentration of agent that reduced cell growth by 50% compared with vehicle (DMSO) control under the experimental conditions and is the average from at least three independent experiments with duplicate samples.
(§4) The following human tumor cell lines were used in the assay: A549 (lung carcinoma), MDA-MB-231 (triplen-egative breast cancer), KB (originally isolated from epidermoid carcinoma of the nasopharynx), KB-VIN (VIN-resistant KB subline showing MDR phenotype by overexpressing P-gp), MCF-7 (estrogen receptor (ER)-positive, HER2-negative breast cancer). […] All cell lines were obtained from the Lineberger Comprehensive Cancer Center (UNC-CH) or from ATCC (Manassas, VA), except KB-VIN, which was a generous gift from Professor Y.-C. Cheng (Yale University). Paclitaxel was purchased from Sigma-Aldrich.

[2] = system: MCF-7 (estrogen receptor-positive breast cancer); assay: Antiproliferative SRB assay, MCF-7; assay type: cell-based; conditions: Homo sapiens, read-out: IC50 MCF-7
Experimental: as §1, §2, §3, §4

[3] = system: KB-VIN (VIN-resistant KB subline showing MDR phenotype by overexpressing P-gp); assay: Antiproliferative SRB assay, KB-VIN; conditions: for IC50: Homo sapiens, KBVIN, 72 h, read-out: IC50 KB-VIN; for fold higher concentration required against KB-VIN cells: KB-VIN compared with chemosensitive cells
Experimental: as §1, §2, §3, §4

[4] = system: MDA-MB-231 (triple negative breast cancer); assay: Antiproliferative SRB assay, MDA-MB-231; assay type: cell-based; conditions: Homo sapiens, read-out: IC50 MDA-MB-231
Experimental: as §1, §2, §3, §4

[5] = system: A549, MDA-MB-231, KB, KB-VIN, and MCF-7; assay: Antiproliferative SRB assay, values stated across several cell lines; assay type: cell-based, human; conditions: for antiproliferative activity (in words): five human tumor cell lines including MDR subline KB-VIN
Experimental: as §1, §2, §3, §4

A549 (lung carcinoma) = assay: Antiproliferative SRB assay, A549; assay type: cell-based; conditions: Homo sapiens, read-out: IC50 A549
Experimental: as §1, §2, §3, §4

KB-VIN cells [6] = assay: Cell cycle analysis by flow cytometry (PI staining); assay type: cell-based, human; conditions: 24 h, 1 × IC50 or 3 × IC50
Experimental: KB-VIN cells were treated with compounds 3, 4, 6, 7, and 13 at their IC50 (1 × IC50) or three-fold IC50 (3 × IC50) concentration, and the cell cycle progression was analyzed by flow cytometer (Figure 2A).
(§5) Figure 2 Mitotic defects in KB-VIN cells treated by compounds. […] Cell cycle distributions (sub-G1, G1, S, G2/M) were analyzed using flow cytometry after staining cells with propidium iodide (PI). […] Fixed cells were stained with antibodies to α-tubulin (green) and phospho-histone H3 (pH3, red), and DAPI was used for DNA (blue). Stained cells were observed by confocal fluorescence microscope. The represented image is a projection of 15~20 optical sections acquired at 0.5~1 µm intervals. […] Bar, 0.025 mm. Additional images are available in Supplementary Figure S1.
KB-VIN cells were seeded in 12-well plates at a density of 1 × 10^5 per well and incubated overnight. […] The DNA contents of stained cells were analyzed by flow cytometer (LSRFortessa, BD Biosciences) controlled by FACSDiva software (BD Biosciences). Paclitaxel (PXL) was used at 3 or 6 µM. […] Experiments were repeated a minimum of two times.

KB-VIN cells [7] = assay: Immunofluorescence staining of α-tubulin, pH3 and DNA; assay type: cell-based, human; conditions: 24 h, 3 × IC50
Experimental: as §5
To determine whether the cell cycle arrest was due to an antimicrotubule effect, cells treated with compounds were analyzed by immunocytochemistry using antibodies to α-tubulin for microtubules and mitotic spindles, Ser10-phosphorylated histone H3 (pH3) for the condensed chromatins and 4′,6-diamidino-2-phenylindole (DAPI) for DNA. […] Thus, we concluded that these alkaloids are tubulin polymerization inhibitors.
Immunocytochemical analysis was performed as previously described. […] After treatment of cells with the agent for 24 h, cells were fixed with 4% paraformaldehyde in PBS and permeabilized with 0.5% Triton X-100 in PBS. Fixed cells were labeled with mouse monoclonal antibody to α-tubulin (B5-1-2, Sigma) and rabbit IgG to Ser10-phosphorylated histone H3 (p-H3) (#06570, EMD Millipore), followed by FITC-conjugated antibody to mouse IgG (Sigma) and Alexa Fluor 549-conjugated antibody to rabbit IgG (Life Technologies). Nuclei were labeled with DAPI (Sigma). Fluorescently-labeled cells were observed using a confocal microscope (Zeiss, LSM700) with ZEN (black edition) software (Zeiss). The 15~20 optical sections acquired at 0.5~1 µm intervals were stacked and reconstructed using ZEN (black edition) software. Experiments were repeated at least twice for each compound. Final images were prepared using Adobe Photoshop CS3.

[8] = Homo sapiens, A549, KB, KB-VIN, range stated for the group of compounds, read-out: IC50 values ranging over A549, KB and KB-VIN cells
[9] = SRB assay, positive controls, unit nM
[10] = MCF7, SRB assay, 72 h, positive controls, unit nM
[11] = MDA-MB-231, SRB assay, 72 h, positive controls, unit nM
[12] = A549, SRB assay, 72 h, positive controls, unit nM
[13] = five human tumor cell lines, read-out: IC50 range over the cell lines tested

Row | Compound | IC50 ([1]; SRB assay) | IC50 ([2]; MCF7, SRB assay, 72 h) | IC50 [3] | IC50 ([4]; MDA-MB-231, SRB assay, 72 h) | antiproliferative activity (in words) [5] | IC50 (A549 (lung carcinoma); A549, SRB assay, 72 h) | further results
1 | COC(=O)C1=C2Nc3ccccc3C23CCN2CC=CC(C(C)O)(C1)C23 [Compound 10, 19-(R)-hydroxytabersonine] | > 40000 nM | > 40000 nM | > 40 µM | > 40000 nM | essentially inactive | > 40000 nM | –
2 | CC[C@]12C=CCN3CC[C@]4(C(=C(C(=O)OC)C1)Nc1cc(OC)ccc14)[C@@H]32 [Compound 12, 11-methoxytabersonine] | 5400 ± 400 nM | – | 5.8 ± 0.1 µM | 6800 ± 1100 nM | exhibited antiproliferative activity against all cell lines | 5200 ± 100 nM | IC50 ([2]; MCF7, 72 h): 8200 ± 900 nM
3 | CC[C@]12C=C[C@@H](CC(C)=O)N3CC[C@]4(C(=C(C(=O)OC)C1)Nc1ccccc14)[C@@H]32 [Compound 3, 3α-acetonyl-tabersonine] | 600 nM | 2200 ± 200 nM | 0.6 ± 0.1 µM | 900 nM | exhibited antiproliferative activity against all cell lines; also recorded: significant antiproliferative effects against all five tumor cell lines | 600 nM | IC50 [5, 8]: 0.5 to 0.9 µM; effect on cell cycle progression (KB-VIN cells [6]): accumulation of cells in the G2/M phase; also recorded: cell cycle arrest at G2/M; microtubule / mitotic spindle morphology (KB-VIN cells [7]): dotted tubulin aggregations without spindles
4 | CC[C@]12C=CCN3CC[C@]4(C(=C(C(=O)OC)C1)Nc1ccccc14)[C@@H]32 [Compound 1, tabersonine] | – | – | 7.4 ± 0.3 µM | – | exhibited antiproliferative activity against all cell lines | – | IC50 [1]: 5500 nM; IC50 ([2]; MCF7, 72 h): 7200 ± 400 nM; IC50 ([4]; MDA-MB-231, 72 h): 5900 nM; IC50 (A549 (lung carcinoma); A549, 72 h): 6900 ± 100 nM
5 | CC[C@@]12CC(C(=O)OC)=C3Nc4cc(OC)ccc4[C@@]34CCN(C[C@H]3O[C@H]31)[C@@H]24 [Compound 9, lochnerinine] | 900 nM | 10200 ± 500 nM | 0.7 µM | 6000 ± 800 nM | exhibited antiproliferative activity against all cell lines | 800 nM | fold rise in potency by a methoxy group at C-11 ([5]; 6 compared with 5, 9 compared with 8): ~ 60 fold; IC50 [5, 8]: 0.5 to 0.9 µM
6 | CC[C@]12CCCN3CC[C@]4(C(=C(C(=O)OC)C1)Nc1ccccc14)[C@@H]32 [Compound 2, vincadifformine] | > 40000 nM | > 40000 nM | > 40 µM | > 40000 nM | essentially inactive | > 40000 nM | –
7 | COC(=O)C1=C2Nc3cc(OC)ccc3C23CCN2CC=CC(C(C)OC(C)=O)(C1)C23 [Compound 14, 19-(R)-acetoxy-11-methoxytabersonine] | > 40000 nM | > 40000 nM | > 40 µM | > 40000 nM | essentially inactive | > 40000 nM | –
8 | CC[C@]1(O)C[C@H]2CN(CCc3c([nH]c4ccccc34)[C@@](C(=O)OC)(c3cc4c(cc3OC)N(C=O)[C@H]3[C@@](O)(C(=O)OC)[C@H](OC(C)=O)[C@]5(CC)C=CCN6CC[C@]43[C@@H]65)C2)C1 [VIN, vincristine, reference compound] | – | – | 2.48 ± 0.0282 µM | – | – | – | IC50 [1, 9]: 4.4 ± 0.1 nM; IC50 [2, 10]: 7.3 ± 0.2 nM; fold higher concentration required against KB-VIN cells [3]: 600 fold; IC50 [4, 11]: 32 ± 0.5 nM; IC50 (A549 (lung carcinoma); [12]): 22.9 ± 2.4 nM; microtubule / mitotic spindle morphology (KB-VIN cells [7]): with multipolar spindles
9 | CC[C@@]12CC(C(=O)OC)=C3Nc4ccccc4[C@@]34CCN(C[C@H]3O[C@H]31)[C@@H]24 [Compound 8, pachysiphine] | > 40000 nM | > 40000 nM | > 40 µM | 34500 ± 200 nM | essentially inactive | 27700 ± 100 nM | –
10 | CC[C@@]12CC(C(=O)OC)=C3Nc4ccccc4[C@@]34CCN([C@H](CC(C)=O)[C@@H]3O[C@@H]31)[C@@H]24 [Compound 4, melodinine S] | 5800 ± 300 nM | 10000 ± 900 nM | 6.3 ± 0.2 µM | 8200 ± 800 nM | exhibited antiproliferative activity against all cell lines; also recorded: significant antiproliferative effects against all five tumor cell lines | 5600 nM | IC50 [5, 13]: 5.6 to 10 µM; effect on cell cycle progression (KB-VIN cells [6]): accumulation of cells in the G2/M phase; also recorded: cell cycle arrest at G2/M; microtubule / mitotic spindle morphology (KB-VIN cells [7]): dotted tubulin aggregations without spindles
11 | CC(=O)O[C@H]1C(=O)[C@@]2(C)[C@H]([C@H](OC(=O)c3ccccc3)[C@]3(O)C[C@H](OC(=O)[C@H](O)[C@@H](NC(=O)c4ccccc4)c4ccccc4)C(C)=C1C3(C)C)[C@]1(OC(C)=O)CO[C@@H]1C[C@@H]2O [PXL, paclitaxel, reference compound] | – | – | 2.36 ± 0.0595 µM | – | – | – | IC50 [1, 9]: 3.7 ± 1.1 nM; IC50 [2, 10]: 8.8 ± 1 nM; fold higher concentration required against KB-VIN cells [3]: 600 fold; IC50 [4, 11]: 7 ± 0.9 nM; IC50 (A549 (lung carcinoma); [12]): 4.5 ± 0.9 nM
12 | COC(=O)C1=C2Nc3ccccc3C23CCN2CC=CC(C(C)OC(C)=O)(C1)C23 [Compound 11, 19-(R)-acetoxytabersonine] | 26500 ± 2500 nM | > 40000 nM | > 40 µM | > 40000 nM | essentially inactive | > 40000 nM | IC50 [5, 13]: > 26.5 µM
